We go through five compounds from ChEMBL document CHEMBL4828758, “Elucidation of Distinct Modular Assemblies of Smoothened Receptor by Bitopic Ligand Measurement” (J Med Chem, 2021).

Activity calls are given as the source filed them. The rule behind the calls is not given here.

What all share (assay type): functional, cell-based
Assay [1] has as its target Protein smoothened (Mus musculus) (UniProt P56726). Nature of the assay: Agonist activity at SMO in mouse NIH3T3 cells assessed as induction of SMO accumulation in primary cilia incubated for 12 hrs by AlexaFluor 488/ DAPI staining based immunofluorescence method. Conditions: filed as agonist.
Assay [2] has the same target. Nature of the assay: Agonist activity at SMO in mouse NIH3T3 cells assessed as induction of SMO accumulation in primary cilia incubated for 12 hrs by fluorescence method. The conditions noted are these: filed as agonist.
For assay [3] the target is unchanged. Put plainly: Agonist activity at SMO in mouse NIH3T3 cells assessed as fluorescent intensity of ciliary SMO incubated for 12 hrs by fluorescence method. Conditions: filed as agonist.
Assay [4] shares this target. Nature of the assay: Antagonist activity at SMO in mouse NIH3T3 cells preincubated for 2 hrs followed by SAG stimulation and measured after 24 hrs in presence of GDC0449 by Bright-Glo luciferase assay. The conditions noted are these: time 26.0 hrs.
For assay [5] the target is unchanged. Nature of the assay: Agonist activity at SMO in mouse NIH3T3 cells preincubated for 2 hrs followed by SAG stimulation and measured after 24 hrs in presence of GDC0449 by Bright-Glo luciferase assay. Conditions: filed as agonist, time 26.0 hrs.
Assay [6] has the same target. Put plainly: Antagonist activity at SMO in mouse NIH3T3 cells preincubated for 2 hrs followed by ShhN stimulation and measured after 24 hrs in presence of GDC0449 by Bright-Glo luciferase assay. The conditions noted are these: filed as antagonist, time 26.0 hrs.
Assay [7] shares this target. Put plainly: Antagonist activity at SMO in mouse NIH3T3 cells preincubated for 2 hrs followed by SAG stimulation and measured after 24 hrs by Bright-Glo luciferase assay. Conditions: time 26.0 hrs.
Assay [8] shares this target. Put plainly: (§1) Agonist activity at SMO in mouse NIH3T3 cells incubated for 2 hrs by Bright-Glo luciferase assay.
In the next assay the target is Protein smoothened (Mus musculus, UniProt P56726). The assay is described as §1.
Protein smoothened, sequence (P56726 whole entry): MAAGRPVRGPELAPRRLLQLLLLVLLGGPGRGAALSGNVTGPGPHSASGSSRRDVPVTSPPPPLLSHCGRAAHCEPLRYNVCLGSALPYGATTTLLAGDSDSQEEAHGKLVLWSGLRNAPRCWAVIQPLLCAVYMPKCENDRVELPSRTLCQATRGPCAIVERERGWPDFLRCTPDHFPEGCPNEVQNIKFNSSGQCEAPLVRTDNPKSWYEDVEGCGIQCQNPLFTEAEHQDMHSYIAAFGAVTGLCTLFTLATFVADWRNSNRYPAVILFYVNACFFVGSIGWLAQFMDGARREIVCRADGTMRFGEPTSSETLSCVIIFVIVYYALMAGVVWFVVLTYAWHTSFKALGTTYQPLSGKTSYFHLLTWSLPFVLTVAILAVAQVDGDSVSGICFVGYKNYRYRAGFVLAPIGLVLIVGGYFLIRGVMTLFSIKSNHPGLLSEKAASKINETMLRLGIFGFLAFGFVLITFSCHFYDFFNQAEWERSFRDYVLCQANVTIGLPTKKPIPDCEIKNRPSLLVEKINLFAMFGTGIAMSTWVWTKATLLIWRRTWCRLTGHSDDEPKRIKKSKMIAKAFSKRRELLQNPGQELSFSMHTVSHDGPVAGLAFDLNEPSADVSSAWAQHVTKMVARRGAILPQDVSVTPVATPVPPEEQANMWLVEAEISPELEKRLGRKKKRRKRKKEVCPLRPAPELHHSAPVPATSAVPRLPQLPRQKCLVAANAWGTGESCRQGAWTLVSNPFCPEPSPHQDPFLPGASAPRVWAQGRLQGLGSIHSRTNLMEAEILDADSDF

Protein smoothened (Mus musculus), sequence (P56726 whole entry): as above

`CC(C)CCC[C@](C)(O)[C@H]1CC[C@H]2[C@@H]3CC=C4C[C@@H](O)CC[C@]4(C)[C@H]3CC[C@@]21C`: the outcome in assay [1], in assay [2], in assay [3], in [5] and in assay [6] was Active. The outcome in assay [4] was inactive.

As to `CC(O)(CCCCCCOCc1cn(CCOCCS(=O)(=O)c2ccc(C(=O)Nc3ccc(Cl)c(-c4ccccn4)c3)c(Cl)c2)nn1)C1CC[C@H]2[C@@H]3CC=C4C[C@@H](O)CC[C@]4(C)[C@H]3CC[C@]12C` (stereo partly specified), in assay [7], the outcome was inactive.

As to `CC(O)(CCCCCCOCCOCc1cn(CCOCCS(=O)(=O)c2ccc(C(=O)Nc3ccc(Cl)c(-c4ccccn4)c3)c(Cl)c2)nn1)C1CC[C@H]2[C@@H]3CC=C4C[C@@H](O)CC[C@]4(C)[C@H]3CC[C@]12C` (stereo partly specified), the outcome in assay [7] was inactive.

In the case of `CN[C@H]1CC[C@H](N(Cc2cccc(-c3ccnc(OCCOCCOCCOCCn4cc(COCCOCCCCCC[C@](C)(O)C5CC[C@H]6[C@@H]7CC=C8C[C@@H](O)CC[C@]8(C)[C@H]7CC[C@]56C)nn4)c3)c2)C(=O)c2sc3ccccc3c2Cl)CC1` (stereo partly specified), the result in assay [1], in assay [2] and in [3] was Active. Also, in assay [8], the outcome was inactive.

Regarding `CN[C@H]1CC[C@H](N(Cc2cccc(-c3ccnc(OCCOCCOCCOCCn4cc(COCCOCCCCCC[C@@H](C)C5CC[C@H]6[C@@H]7CC=C8C[C@@H](O)CC[C@]8(C)[C@H]7CC[C@]56C)nn4)c3)c2)C(=O)c2sc3ccccc3c2Cl)CC1` (stereo partly specified), the result in assay [1], in assay [2] and in assay [3] was Active. On Protein smoothened, this compound showed an EC50 of 0.2 µM.

Usually EC50 stands for the concentration giving half of the maximal effect. A low value points to greater potency.
